Common to all, as to experiment: DTP human tumour cell line panel, 48 h
The subject of experiment [1] is SW-620 colon.
Experiment [2] deals with SNB-19 CNS.
The test system of experiment [3] is HCC-2998 colon.
Experiment [4] deals with UACC-62 melanoma.
Experiment [5] concerns SNB-75 CNS.
For experiment [6], the system named is COLO 205 colon.
The subject of experiment [7] is CAKI-1 renal.
The subject of experiment [8] is A549 NSCLC.

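96-well plates; 48 h exposure; 5 concentrations. Endpoints by linear interpolation between flanking doses. Not reached: highest tested concentration assigned. Abbreviation: GI50, concentration required for 50% inhibition of growth. Definition used: TGI = concentration required for complete inhibition of growth.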

On to `BrC1=CC=C2NC=CC3=CC=NC1C32` (configuration not stated), for which the TGI in experiment [1] was over 60.6 µM; in experiment [2] it was over 75 µM; in experiment [3], over 100 µM; in experiment [4] it was 22.6 µM; in experiment [5], 98.9 µM; in experiment [6], 58.5 µM.

Turning to `CC(=O)[CH-]C(=O)c1ccccc1.CC(=O)[CH-]C(=O)c1ccccc1.CC1(C)C2CCC1(C)C([O-])C2.CC1(C)C2CCC1(C)C([O-])C2.[Ti+4]`, the GI50 is 36.6 µM in experiment [1]; 25.8 µM in experiment [2]; 51.4 µM in experiment [7]; 38.5 µM in experiment [3]; 16.7 µM in experiment [4]; 23.9 µM in experiment [8]. The GI50 in experiment [6] was 38.4 µM. In addition, the TGI in experiment [1] was over 100 µM; in experiment [2], 97.7 µM; in experiment [7], over 100 µM; in experiment [3], over 100 µM; in experiment [4], 51.3 µM; in experiment [8] it was over 100 µM. The compound further had a TGI in experiment [6] of over 100 µM.

For the compound `Clc1cc(Cc2cc(Cl)c(Cl)c3c2OCOC3)c2c(c1Cl)COCO2`, the TGI in experiment [1] is over 100 µM; in experiment [2], over 100 µM; in experiment [7], 49.7 µM; in experiment [3], over 100 µM; in experiment [4] it was over 100 µM; in experiment [8], over 100 µM. Further, the TGI was 52.3 µM in experiment [5] and over 100 µM in experiment [6].

In the case of `N#CC(C(=O)/C(=N/N)C(C#N)c1ccccc1)c1ccccc1` (configuration not stated), the total growth inhibition concentration (TGI) in experiment [1], in experiment [2], in experiment [7], in experiment [3], in experiment [4] and in experiment [8] was over 100 µM in each case.

In the case of `Oc1cc(O)c2c(-c3c(O)c(-c4ccc(O)c(O)c4)[o+]c4cc(O)cc(O)c34)c(O)c(-c3ccc(O)c(O)c3)[o+]c2c1`, the total growth inhibition concentration (TGI) in experiment [1] is over 100 µM; in experiment [2], over 100 µM; in experiment [7] it was 95.6 µM; in experiment [3], over 100 µM; in experiment [4], 46.7 µM; in experiment [8], over 100 µM. Besides, the figures for the TGI in experiment [5] and in experiment [6] were 61.8 µM and over 100 µM, respectively.

On to `CCC/C(=N/NC(=O)C(N)=O)C(CC)C(=O)CCC(=O)N(Cc1ccccc1)Cc1ccccc1` (configuration not stated), for which the total growth inhibition concentration (TGI) in experiment [1], in experiment [2], in experiment [7], in experiment [3], in experiment [4] and in experiment [8] was over 100 µM throughout. Further, the concentration for total growth inhibition (TGI) in experiment [5] and in experiment [6] was over 100 µM each time.

In the case of `CC(=O)[CH-]C(=O)c1ccccc1.CC(=O)[CH-]C(=O)c1ccccc1.[Eu+3].[OH-].[OH3+]`, the GI50 in experiment [1], in experiment [2], in experiment [7], in experiment [3], in experiment [4] and in experiment [8] was over 100 µM each time. Also, the results for the GI50 in experiment [5] and in experiment [6] were 96.1 µM and over 100 µM, respectively. The TGI in experiment [1], in experiment [2], in experiment [7], in experiment [3], in experiment [4] and in experiment [8] was over 100 µM each time. For the same compound, the TGI in experiment [5] and in experiment [6] was over 100 µM each time.

With `CC(=O)[CH-]C(=O)c1ccccc1.CC(=O)[CH-]C(=O)c1ccccc1.CC(C)CCCC(C)[C@H]1CCC2[C@@H]3CC=C4C[C@@H]([O-])CC[C@]4(C)C3CC[C@@]21C.CC[O-].[Ti+4]` (some centres not stated), the GI50 in experiment [1] was 46.6 µM; in experiment [2], 32.6 µM; in experiment [7], over 100 µM; in experiment [3], 62.6 µM; in experiment [4], 82.3 µM; in experiment [8] it was over 100 µM. The values for the GI50 in experiment [5] and in experiment [6] were 28.5 µM and 48.5 µM, respectively. Besides, the TGI in experiment [1], in experiment [2], in experiment [7], in experiment [3], in experiment [4] and in experiment [8] was over 100 µM throughout. In addition, the TGI in experiment [5] and in experiment [6] was over 100 µM throughout.

`O=[N+]([O-])c1nccn1CC(O)CN1CC1` (configuration not stated): the TGI in experiment [1], in experiment [2], in experiment [7], in experiment [4], in experiment [8] and in experiment [5] was over 100 µM throughout. This compound came in with a TGI in experiment [6] of over 100 µM.

`O=C(CO)CC(=O)C(=O)Nc1ccccc1`: the TGI in experiment [1], in experiment [2], in experiment [3], in experiment [4], in experiment [8] and in experiment [6] was over 100 µM each time.

Turning to `CCCCCC/C=C1\CCC(CN2CCCC2)C1=O` (configuration not stated), the total growth inhibition concentration (TGI) is over 59.4 µM in experiment [1]; over 52.9 µM in experiment [2]; over 53.5 µM in experiment [7]; 31.6 µM in experiment [3]; 35.9 µM in experiment [4]; 37 µM in experiment [8]. For the same compound, the TGI in experiment [5] stood at 38.3 µM; in experiment [6] it was 36.3 µM.

For the compound `CN(C)c1ccc([O][Bi]([Cl])[Cl])cc1`, the GI50 in experiment [1] was over 100 µM; in experiment [2] it was over 100 µM; in experiment [7], over 100 µM; in experiment [3], 42.5 µM; in experiment [4], over 100 µM; in experiment [8], over 100 µM. Moreover, the GI50 in experiment [5] and in experiment [6] was over 100 µM throughout. For the same compound, the TGI in experiment [1], in experiment [2], in experiment [7], in experiment [3], in experiment [4] and in experiment [8] was over 100 µM in each case. The TGI in experiment [5] and in experiment [6] was over 100 µM throughout.

For `COC(=O)/C([Se]c1c(C)cc(C)cc1C)=C(\[Se]c1c(C)cc(C)cc1C)C(=O)OC`, the TGI in experiment [1], in experiment [2], in experiment [7], in experiment [3], in experiment [4] and in experiment [8] was over 100 µM throughout. Also, the TGI in experiment [5] and in experiment [6] was over 100 µM each time.

Broadly, the TGI is the concentration at which net growth stops. Low values mean more potent growth arrest, high ones less potent growth arrest. One may read the GI50 as the concentration at which growth is held to half of that of the control.

(Values after PubChem BioAssay (NCI).)
